Data from patent publication US20210205223A1, “PROPELLANT-FREE FORMULATION FOR INHALATION” (priority 2020, published 2021).
Where a name gives a salt, the structure may show the parent alone.

Conditions: solution of sample 1 from soft mist inhaler; ACI 28.3 L/minute, ambient temperature, RH 90%
Description: The aerodynamic particle size distribution was determined using an Andersen Scale Impactor (ACI). The soft mist inhaler was held close to the ACI inlet until no aerosol was visible. The flow rate of the ACI was set to 28.3 L/minute and was operated under ambient temperature and a relative humidity (RH) of 90%.
Fractions of the dose were deposited at different stages of the ACI, in accordance with the particle size of the fraction. Each fraction was washed from the stage and analyzed using HPLC.
The particle size distribution was expressed in terms of mass median aerodynamic diameter (MMAD) and Geometric Standard Deviation (GSD).

| SMILES | MMAD (mass median aerodynamic diameter) [μm] |
| --- | --- |
| C[N+]1(C)CCC(OC(=O)C(O)(c2ccccc2)C2CCCC2)C1.[Br-] (centres unmarked) [Glycopyrronium bromide] | 4.91 |
| COc1ccc(CC(C)NCC(O)c2ccc(O)c(NC=O)c2)cc1 (centres unmarked) [Formoterol fumarate, N-[2-hydroxy-5-(1-hydroxy-2-((2-(4-methoxyphenyl)-1-methylethy-1)amino)-ethyl)phenyl] formamide] | 4.49 |
